From patent US11945822B2, “Pyrazolo-triazine and/or pyrazolo-pxrimidine derivatives as selective inhibitor of cyclin dependent kinase” (QURIENT CO., LTD., priority 2018, dated 2024)

Columns and labels:
MV4-11 = test: Cellular MV4-11 viability assay (CellTiter-Glo, 72 hours); assay type: cell-based; details: Homo sapiens
Protocol: (§1) All cell lines were routinely tested for mycoplasma.
(§2) The effect of the CDK7 inhibitor to inhibit the growth of target cancer cells was evaluated through the 72 hours time period of viability assay. Briefly, the candidate cell line ware plated in 96 well plate at the following density of cells respectively. […] DMSO solvent without compound served as a control and final DMSO concentration less than 0.1%. After 72 hours of incubation at 37° C., 5% CO2 incubator, cells were analyzed for the viability using the CellTiter-Glo Luminescent Cell Viability Assay (Promega, Cat #G7570). All viability assays were performed in duplicate and Luminescence was read using an Envision (Perkin Elmer, USA). Data was analyzed using XLfit software.

H460 = test: Cellular H460 viability assay (CellTiter-Glo, 72 hours); assay type: cell-based; details: Homo sapiens, NCI-H460
In short: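 72 h treatment, 37 °C, 5% CO2; DMSO ctrl, final <0.1%; CellTiter-Glo luminescence; n=2.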

CDK1/Cyclin B = molecular target: T1, CDK1/Cyclin B (Homo sapiens, UniProt P06493); test: Enzymatic assay for CDK1 (FRET based LANCE Ultra kinase assay); assay type: biochemical; details: read-out: CDK1 enzymatic activity (IC50 range)
T1 construct: purchased Invitrogen PR4768C
T1 sequence (P06493 whole entry): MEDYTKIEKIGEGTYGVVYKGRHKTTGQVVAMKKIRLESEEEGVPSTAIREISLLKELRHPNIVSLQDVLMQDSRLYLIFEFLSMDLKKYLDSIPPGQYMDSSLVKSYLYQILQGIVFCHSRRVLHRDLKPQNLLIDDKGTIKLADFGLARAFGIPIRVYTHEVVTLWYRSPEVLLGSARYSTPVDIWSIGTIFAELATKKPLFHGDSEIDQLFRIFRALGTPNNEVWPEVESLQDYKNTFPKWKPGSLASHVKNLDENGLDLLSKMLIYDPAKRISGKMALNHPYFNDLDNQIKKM
T1 sequence (P14635 whole entry partner): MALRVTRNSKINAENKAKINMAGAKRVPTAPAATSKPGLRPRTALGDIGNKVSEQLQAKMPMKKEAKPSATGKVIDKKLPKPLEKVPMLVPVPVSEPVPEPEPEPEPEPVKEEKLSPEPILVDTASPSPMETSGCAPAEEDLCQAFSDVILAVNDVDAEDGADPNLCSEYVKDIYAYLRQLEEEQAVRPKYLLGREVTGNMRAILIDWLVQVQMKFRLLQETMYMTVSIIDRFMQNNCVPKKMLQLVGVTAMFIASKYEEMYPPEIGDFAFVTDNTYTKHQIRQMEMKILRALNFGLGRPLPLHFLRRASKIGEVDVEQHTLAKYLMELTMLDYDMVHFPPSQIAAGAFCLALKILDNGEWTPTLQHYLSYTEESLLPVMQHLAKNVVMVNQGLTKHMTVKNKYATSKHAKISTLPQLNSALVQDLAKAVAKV
In short: (§3)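 LANCE Ultra TR-FRET: ULight-MBP peptide (68 nM) with ATP at Km, […], 60 min at 23° C. EDTA plus Eu-anti-phospho-MBP added, another 60 min, then 665/615 nm emission read. Compounds tested as 8-dose 4-fold DMSO dilutions.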

HCT116 = test: Cellular HCT116 viability assay (CellTiter-Glo, 72 hours); assay type: cell-based; details: Homo sapiens, HCT-116
Protocol: as §1, §2

CDK5/p25 = molecular target: T2, CDK5/p25 (Homo sapiens, UniProt Q00535); test: Enzymatic assay for CDK5 (FRET based LANCE Ultra kinase assay); assay type: biochemical; details: read-out: CDK5 enzymatic activity (IC50 range)
T2 construct: purchased Invitrogen PR8543B
T2 sequence (Q00535 whole entry): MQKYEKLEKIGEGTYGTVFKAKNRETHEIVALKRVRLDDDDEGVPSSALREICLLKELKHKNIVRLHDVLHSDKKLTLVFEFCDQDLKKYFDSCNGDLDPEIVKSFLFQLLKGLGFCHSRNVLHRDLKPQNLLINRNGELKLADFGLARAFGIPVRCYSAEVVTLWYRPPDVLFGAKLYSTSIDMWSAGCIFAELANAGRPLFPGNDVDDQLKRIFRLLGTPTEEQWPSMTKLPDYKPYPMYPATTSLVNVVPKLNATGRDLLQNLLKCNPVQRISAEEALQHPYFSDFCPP
T2 sequence (Q15078 99-307 partner limits assumed): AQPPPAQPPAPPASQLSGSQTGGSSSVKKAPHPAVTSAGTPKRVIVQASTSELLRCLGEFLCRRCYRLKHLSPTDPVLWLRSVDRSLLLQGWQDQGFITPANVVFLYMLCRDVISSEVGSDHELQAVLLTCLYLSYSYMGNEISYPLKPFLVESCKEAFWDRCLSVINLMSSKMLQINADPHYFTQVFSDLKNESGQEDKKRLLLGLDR
In short: as §3

CDK2/Cyclin A = molecular target: T3, CDK2/Cyclin A (Homo sapiens, UniProt P24941); test: Enzymatic assay for CDK2 (FRET based LANCE Ultra kinase assay); assay type: biochemical; details: read-out: CDK2 enzymatic activity (IC50 range)
T3 construct: purchased Invitrogen PV6290
In short: as §3

CDK7/Cyclin H/MNAT1 = molecular target: T4, CDK7/Cyclin H/MNAT1 (Homo sapiens, UniProt P50613); test: Enzymatic assay for CDK7 (FRET based LANCE Ultra kinase assay); assay type: biochemical; details: for IC50: read-out: CDK7 enzymatic activity (IC50 range)
T4 construct: purchased Invitrogen PR6749B
T4 sequence (P50613 whole entry): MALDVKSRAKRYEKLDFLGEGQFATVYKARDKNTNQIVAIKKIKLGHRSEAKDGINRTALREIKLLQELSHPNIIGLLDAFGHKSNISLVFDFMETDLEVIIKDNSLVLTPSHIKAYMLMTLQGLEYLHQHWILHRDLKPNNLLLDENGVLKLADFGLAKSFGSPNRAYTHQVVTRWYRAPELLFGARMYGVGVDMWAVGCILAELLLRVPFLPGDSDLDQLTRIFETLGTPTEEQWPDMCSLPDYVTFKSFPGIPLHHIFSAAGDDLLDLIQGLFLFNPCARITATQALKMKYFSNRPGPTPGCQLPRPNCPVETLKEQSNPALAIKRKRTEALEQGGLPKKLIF
T4 sequence (P51946 whole entry partner): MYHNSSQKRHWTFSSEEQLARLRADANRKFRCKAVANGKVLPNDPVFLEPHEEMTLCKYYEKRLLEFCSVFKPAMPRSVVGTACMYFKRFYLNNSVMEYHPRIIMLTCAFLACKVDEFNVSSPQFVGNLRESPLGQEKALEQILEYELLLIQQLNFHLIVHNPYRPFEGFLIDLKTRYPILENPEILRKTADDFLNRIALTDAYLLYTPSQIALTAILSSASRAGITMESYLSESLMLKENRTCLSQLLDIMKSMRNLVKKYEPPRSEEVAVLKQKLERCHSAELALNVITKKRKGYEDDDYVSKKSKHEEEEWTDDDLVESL
T4 sequence (P51948 whole entry partner): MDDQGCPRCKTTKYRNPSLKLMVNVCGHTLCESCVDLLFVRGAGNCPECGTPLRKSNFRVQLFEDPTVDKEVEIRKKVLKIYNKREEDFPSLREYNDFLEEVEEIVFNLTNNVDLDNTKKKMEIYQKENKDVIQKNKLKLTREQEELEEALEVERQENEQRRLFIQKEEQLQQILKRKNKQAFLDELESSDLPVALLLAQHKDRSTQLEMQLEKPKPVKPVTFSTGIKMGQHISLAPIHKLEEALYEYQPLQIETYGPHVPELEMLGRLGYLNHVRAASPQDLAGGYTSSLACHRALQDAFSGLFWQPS
In short: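 LANCE Ultra TR-FRET kinase assay using a ULight-labeled peptide substrate and a Eu-labeled anti-phospho antibody, with ATP at its Km. Purified CDK/cyclin complex was added to compound after brief centrifugation.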

| Compound | IC50 (MV4-11) | IC50 (H460) | IC50 (CDK1/Cyclin B) | IC50 (HCT116) | IC50 (CDK5/p25) | IC50 (CDK2/Cyclin A) | CDK1/CDK7: Selectivity of CDK7 inhibition over CDK1 inhibition (CDK7/Cyclin H/MNAT1) | CDK2/CDK7: Selectivity of CDK7 inhibition over CDK2 inhibition (CDK7/Cyclin H/MNAT1) | CDK5/CDK7: Selectivity of CDK7 inhibition over CDK5 inhibition (CDK7/Cyclin H/MNAT1) | IC50 (CDK7/Cyclin H/MNAT1) |
| --- | --- | --- | --- | --- | --- | --- | --- | --- | --- | --- |
| CC[C@@H](N)COc1nc(NCc2ccccc2-c2ccc3ccccc3n2)n2ncc(C(C)C)c2n1 [Compound 237] | 1000 to 10000 nM | 1000 to 10000 nM | > 1000 nM | 1000 to 10000 nM | > 1000 nM | > 1000 nM | A (A=greater than 200 fold) | A (A=greater than 200 fold) | A (A=greater than 200 fold) | < 100 nM |
| CC(C)C(=O)N1CCc2nn(-c3ccccc3CNc3nc(N4CCC(N)CC4)nc4c(C(C)C)cnn34)cc2C1 [Compound 148] | < 1000 nM | < 1000 nM | > 1000 nM | < 1000 nM | < 100 nM | 100 to 1000 nM | A (A=greater than 200 fold) | A (A=greater than 200 fold) | B (B=less than 200 fold, but greater than 20 fold) | < 100 nM |
| CC(C)c1cnn2c(NCc3c(Cl)cccc3-n3ccc(C(=O)NC4COC4)n3)nc(N3CCC(N)CC3)nc12 [Compound 205] | < 1000 nM | < 1000 nM | > 1000 nM | < 1000 nM | 100 to 1000 nM | > 1000 nM | A (A=greater than 200 fold) | A (A=greater than 200 fold) | B (B=less than 200 fold, but greater than 20 fold) | < 100 nM |
| CC(C)c1cnn2c(NCc3ccccc3-c3ccc4ccccc4n3)cc(OCC3CCNCC3)nc12 [Compound 213] | 1000 to 10000 nM | 1000 to 10000 nM | > 1000 nM | 1000 to 10000 nM | > 1000 nM | > 1000 nM | A (A=greater than 200 fold) | A (A=greater than 200 fold) | A (A=greater than 200 fold) | < 100 nM |
| Cc1cccc(-n2ccc(C(C)(C)O)n2)c1CNc1nc(NCC2CCNCC2)nc2c(C(C)C)cnn12 [Compound 232] | 1000 to 10000 nM | 1000 to 10000 nM | > 1000 nM | 1000 to 10000 nM | > 1000 nM | > 1000 nM | A (A=greater than 200 fold) | A (A=greater than 200 fold) | A (A=greater than 200 fold) | < 100 nM |
| CC(C)c1cnn2c(NCc3c(Cl)cccc3-n3ccc(C(=O)N4CCOCC4)n3)nc(N3CCC(N)CC3)nc12 [Compound 200] | < 1000 nM | < 1000 nM | > 1000 nM | < 1000 nM | > 1000 nM | > 1000 nM | A (A=greater than 200 fold) | A (A=greater than 200 fold) | A (A=greater than 200 fold) | < 100 nM |
| CC(C)c1cnn2c(NCc3ccccc3-n3ccc(C(C)(C)O)n3)nc(N3CCC(CN)CC3)nc12 [Compound 221] | < 1000 nM | < 1000 nM | > 1000 nM | < 1000 nM | > 1000 nM | > 1000 nM | A (A=greater than 200 fold) | A (A=greater than 200 fold) | A (A=greater than 200 fold) | < 100 nM |
| CC(C)c1cnn2c(NCc3ccccc3-n3cc(C(=O)Nc4ccccc4)cn3)nc(N3CCC(N)CC3)nc12 [Compound 152] | < 1000 nM | < 1000 nM | > 1000 nM | < 1000 nM | < 100 nM | 100 to 1000 nM | A (A=greater than 200 fold) | B (B=less than 200 fold, but greater than 20 fold) | B (B=less than 200 fold, but greater than 20 fold) | < 100 nM |
| CC(C)c1cnn2c(NCc3ccccc3-n3cc(N4CCOCC4)cn3)nc(N3CCC(N)CC3)nc12 [Compound 156] | < 1000 nM | < 1000 nM | > 1000 nM | < 1000 nM | 100 to 1000 nM | 100 to 1000 nM | A (A=greater than 200 fold) | B (B=less than 200 fold, but greater than 20 fold) | B (B=less than 200 fold, but greater than 20 fold) | < 100 nM |
| CC(C)c1cnn2c(NCc3ccccc3-n3ccc(C(C)(C)O)n3)nc(OCC3CCNCC3)nc12 [Compound 227] | 1000 to 10000 nM | < 1000 nM | > 1000 nM | < 1000 nM | > 1000 nM | > 1000 nM | A (A=greater than 200 fold) | A (A=greater than 200 fold) | A (A=greater than 200 fold) | < 100 nM |
| CC1CCN(c2cnn(-c3cccc(Cl)c3CNc3nc(N4CCC(N)CC4)nc4c(C(C)C)cnn34)c2)CC1 [Compound 204] | < 1000 nM | < 1000 nM | > 1000 nM | < 1000 nM | > 1000 nM | > 1000 nM | A (A=greater than 200 fold) | A (A=greater than 200 fold) | A (A=greater than 200 fold) | < 100 nM |
| CC(C)c1cnn2c(NCc3c(Cl)cccc3-n3ccc(C(=O)NC4CCOCC4)n3)nc(N3CCC(N)CC3)nc12 [Compound 201] | < 1000 nM | < 1000 nM | > 1000 nM | < 1000 nM | 100 to 1000 nM | > 1000 nM | A (A=greater than 200 fold) | A (A=greater than 200 fold) | B (B=less than 200 fold, but greater than 20 fold) | < 100 nM |
| CC(C)c1cnn2c(NCc3ccccc3-c3ccc4ccccc4n3)nc(OCC3CCNCC3O)nc12 (stereo not shown) [Compound 218] | < 1000 nM | < 1000 nM | > 1000 nM | < 1000 nM | > 1000 nM | > 1000 nM | A (A=greater than 200 fold) | A (A=greater than 200 fold) | A (A=greater than 200 fold) | < 100 nM |
